The results in this text go back to US20240239861A1, “GLUCAGON-RECEPTOR SELECTIVE POLYPEPTIDES AND METHODS OF USE THEREOF” (i2O Therapeutics, Inc., priority 2016, published 2024).

Where a SMILES comes first, the peptide text is derived from it. [ ]: non-standard residue; d: D form. Aib = CC(C)(N)C(=O)O

The target of one assay is human GCGR (Homo sapiens, UniProt P47871). The assay can be described thus: Peptide-receptor mediated cAMP accumulation (LANCE Ultra cAMP) in CHO-K1 cells transfected with human GCGR. It is filed as cell-based. To be noted: FIG. 1A.
On to “GLP-1 (7-37): form of glucagon-like peptide-1 used as comparator in the receptor activation profiles of FIG. 1 [reference compound]”, for which the “activation profile at the human glucagon receptor (GCGR)” value is reported as “much lower potency”.

A further assay deals with human GLP-1R (Homo sapiens, UniProt P43220). The assay can be described thus: Peptide-receptor mediated cAMP accumulation (LANCE Ultra cAMP) in CHO-K1 cells transfected with human GLP-1R. The class given is cell-based. To be noted: hGLP1 pEC50 (cAMP mean (n = 3): 11 point curve starting at 1 nM, Table 3).
human GLP-1R, sequence (P43220 24-463): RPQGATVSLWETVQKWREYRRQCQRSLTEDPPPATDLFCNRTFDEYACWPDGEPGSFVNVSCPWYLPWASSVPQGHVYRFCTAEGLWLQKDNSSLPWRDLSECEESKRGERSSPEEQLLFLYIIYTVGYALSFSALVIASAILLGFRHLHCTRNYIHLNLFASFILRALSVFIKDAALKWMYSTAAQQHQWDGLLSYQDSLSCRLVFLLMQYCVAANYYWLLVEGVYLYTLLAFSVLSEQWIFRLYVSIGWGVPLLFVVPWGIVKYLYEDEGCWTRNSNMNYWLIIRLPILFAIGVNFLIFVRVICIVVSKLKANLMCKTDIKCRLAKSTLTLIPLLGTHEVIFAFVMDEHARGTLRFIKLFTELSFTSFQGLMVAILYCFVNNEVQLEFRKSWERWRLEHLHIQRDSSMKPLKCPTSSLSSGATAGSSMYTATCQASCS
As to `CC(C)C[C@H](NC(=O)[C@H](Cc1ccc(O)cc1)NC(=O)[C@H](CCCCN)NC(=O)[C@H](CO)NC(=O)[C@H](Cc1ccc(O)cc1)NC(=O)[C@H](CC(=O)O)NC(=O)[C@H](CO)NC(=O)[C@@H](NC(=O)[C@H](Cc1ccccc1)NC(=O)[C@@H](NC(=O)CNC(=O)[C@H](Cc1c[nH]cn1)NC(=O)[C@H](CO)NC(=O)[C@@H](N)Cc1ccc(O)cc1)[C@@H](C)O)[C@@H](C)O)C(=O)N[C@@H](CC(=O)O)C(=O)N[C@@H](C)C(=O)N[C@@H](C)C(=O)N[C@@H](CCCNC(=N)N)C(=O)N[C@@H](C)C(=O)N[C@@H](CCC(N)=O)C(=O)N[C@@H](CCC(=O)O)C(=O)N[C@@H](Cc1ccccc1)C(=O)N[C@H](C(=O)N[C@@H](CCCCN)C(=O)N[C@@H](Cc1c[nH]c2ccccc12)C(=O)N[C@@H](CC(C)C)C(=O)N[C@@H](CCC(=O)O)C(=O)N[C@@H](CC(=O)O)C(=O)N[C@@H](CCC(=O)O)C(=O)N1CCC[C@H]1C(=O)N[C@@H](CCCCN)C(=O)N[C@@H](CO)C(=O)N[C@@H](CCCCN)C(=O)N[C@@H](CO)C(=O)N1CCC[C@H]1C(=O)N1CCC[C@H]1C(=O)N1CCC[C@H]1C(=O)N[C@@H](CO)C(N)=O)C(C)C` [Compound A80] (H-YSHGTFTSDYSKYLDAARAQEFVKWLEDEPKSKSPPPS-NH2; N-terminus assumed), the EC50 was > 1 nM.
On to `CC(C)C[C@H](NC(=O)[C@H](Cc1ccc(O)cc1)NC(=O)[C@H](CCCCN)NC(=O)[C@H](CO)NC(=O)[C@H](Cc1ccc(O)cc1)NC(=O)[C@H](CC(=O)O)NC(=O)[C@H](CO)NC(=O)[C@@H](NC(=O)[C@H](Cc1ccccc1)NC(=O)[C@@H](NC(=O)CNC(=O)[C@H](Cc1c[nH]cn1)NC(=O)[C@H](CO)NC(=O)[C@@H](N)Cc1ccc(O)cc1)[C@@H](C)O)[C@@H](C)O)C(=O)N[C@@H](CC(=O)O)C(=O)NC(C)(C)C(=O)N[C@@H](CCCCN)C(=O)N[C@@H](CCCNC(=N)N)C(=O)N[C@@H](C)C(=O)N[C@@H](CCC(N)=O)C(=O)N[C@@H](CCC(=O)O)C(=O)N[C@@H](Cc1ccccc1)C(=O)N[C@H](C(=O)NC(C)(C)C(=O)N[C@@H](Cc1c[nH]c2ccccc12)C(=O)N[C@@H](CC(C)C)C(=O)N[C@@H](CCC(=O)O)C(=O)N[C@@H](CC(=O)O)C(=O)N[C@@H](CCC(=O)O)C(=O)N1CCC[C@H]1C(=O)N[C@@H](CO)C(=O)N[C@@H](CO)C(=O)NCC(=O)N[C@@H](CCCCN)C(=O)N1CCC[C@H]1C(=O)N1CCC[C@H]1C(=O)N1CCC[C@H]1C(=O)N[C@@H](CO)C(N)=O)C(C)C` [Compound A85] (H-YSHGTFTSDYSKYLD[Aib]KRAQEFV[Aib]WLEDEPSSGKPPPS-NH2; N-terminus assumed), for which the 50% effective concentration (EC50) was > 1 nM.
The same measure, in the same setting: the result for `CC(C)C[C@H](NC(=O)[C@H](Cc1ccc(O)cc1)NC(=O)[C@H](CCCCN)NC(=O)[C@H](CO)NC(=O)[C@H](Cc1ccc(O)cc1)NC(=O)[C@H](CC(=O)O)NC(=O)[C@H](CO)NC(=O)[C@@H](NC(=O)[C@H](Cc1ccccc1)NC(=O)[C@@H](NC(=O)CNC(=O)[C@H](Cc1c[nH]cn1)NC(=O)[C@H](CO)NC(=O)[C@@H](N)Cc1ccc(O)cc1)[C@@H](C)O)[C@@H](C)O)C(=O)N[C@@H](CC(=O)O)C(=O)NC(C)(C)C(=O)N[C@@H](CCCCN)C(=O)N[C@@H](CCCNC(=N)N)C(=O)N[C@@H](C)C(=O)N[C@@H](CCC(N)=O)C(=O)N[C@@H](CCC(=O)O)C(=O)N[C@@H](Cc1ccccc1)C(=O)N[C@H](C(=O)NC(C)(C)C(=O)N[C@@H](Cc1c[nH]c2ccccc12)C(=O)N[C@@H](CC(C)C)C(=O)N[C@@H](CCC(=O)O)C(=O)N[C@@H](CC(=O)O)C(=O)N[C@@H](CCC(=O)O)C(=O)N[C@@H](CCCCN)C(=O)N[C@@H](CO)C(=O)N[C@@H](CO)C(=O)NCC(=O)N[C@@H](CCCCN)C(=O)N1CCC[C@H]1C(=O)N1CCC[C@H]1C(=O)N1CCC[C@H]1C(=O)N[C@@H](CO)C(=O)O)C(C)C` [Compound A87] (H-YSHGTFTSDYSKYLD[Aib]KRAQEFV[Aib]WLEDEKSSGKPPPS-OH; N-terminus assumed) reads > 1 nM; that for `CC(C)C[C@H](NC(=O)[C@H](Cc1ccc(O)cc1)NC(=O)[C@H](CCCCN)NC(=O)[C@H](CO)NC(=O)[C@H](Cc1ccc(O)cc1)NC(=O)[C@H](CC(=O)O)NC(=O)[C@H](CO)NC(=O)[C@@H](NC(=O)[C@H](Cc1ccccc1)NC(=O)[C@@H](NC(=O)CNC(=O)[C@H](Cc1c[nH]cn1)NC(=O)[C@H](CO)NC(=O)[C@@H](N)Cc1ccc(O)cc1)[C@@H](C)O)[C@@H](C)O)C(=O)N[C@@H](CC(=O)O)C(=O)NC(C)(C)C(=O)N[C@@H](CCCCN)C(=O)N[C@@H](CCCNC(=N)N)C(=O)N[C@@H](C)C(=O)N[C@@H](CCC(N)=O)C(=O)N[C@@H](CCC(=O)O)C(=O)N[C@@H](Cc1ccccc1)C(=O)N[C@H](C(=O)NC(C)(C)C(=O)N[C@@H](Cc1c[nH]c2ccccc12)C(=O)N[C@@H](CC(C)C)C(=O)N[C@@H](CCC(=O)O)C(=O)N[C@@H](CC(=O)O)C(=O)N[C@@H](CCC(=O)O)C(=O)N1CCC[C@H]1C(=O)N[C@@H](CO)C(=O)N[C@@H](CO)C(=O)NCC(=O)N[C@@H](CCCCN)C(=O)N[C@@H](CCCCN)C(=O)N1CCC[C@H]1C(=O)N1CCC[C@H]1C(=O)N[C@@H](CO)C(=O)O)C(C)C` [Compound A88] (H-YSHGTFTSDYSKYLD[Aib]KRAQEFV[Aib]WLEDEPSSGKKPPS-OH), > 1 nM; that for `CC(C)C[C@H](NC(=O)[C@H](Cc1ccc(O)cc1)NC(=O)[C@H](CCCCN)NC(=O)[C@H](CO)NC(=O)[C@H](Cc1ccc(O)cc1)NC(=O)[C@H](CC(=O)O)NC(=O)[C@H](CO)NC(=O)[C@@H](NC(=O)[C@H](Cc1ccccc1)NC(=O)[C@@H](NC(=O)CNC(=O)[C@H](Cc1c[nH]cn1)NC(=O)[C@H](CO)NC(=O)[C@@H](N)Cc1ccc(O)cc1)[C@@H](C)O)[C@@H](C)O)C(=O)N[C@@H](CC(=O)O)C(=O)NC(C)(C)C(=O)N[C@@H](CCCCN)C(=O)N[C@@H](CCCNC(=N)N)C(=O)N[C@@H](C)C(=O)N[C@@H](CCC(N)=O)C(=O)N[C@@H](CCC(=O)O)C(=O)N[C@@H](Cc1ccccc1)C(=O)N[C@H](C(=O)NC(C)(C)C(=O)N[C@@H](Cc1c[nH]cn1)C(=O)N[C@@H](CC(C)C)C(=O)N[C@@H](CCC(=O)O)C(=O)N[C@@H](CC(=O)O)C(=O)N[C@@H](CCC(=O)O)C(=O)N1CCC[C@H]1C(=O)N[C@@H](CO)C(=O)N[C@@H](CO)C(=O)NCC(=O)N[C@@H](CCCCN)C(=O)N1CCC[C@H]1C(=O)N1CCC[C@H]1C(=O)N1CCC[C@H]1C(=O)N[C@@H](CO)C(=O)O)C(C)C` [Compound A89] (H-YSHGTFTSDYSKYLD[Aib]KRAQEFV[Aib]HLEDEPSSGKPPPS-OH; N-terminus assumed), > 1 nM.
Regarding `CC(C)C[C@H](NC(=O)[C@H](Cc1ccc(O)cc1)NC(=O)[C@H](CCCCN)NC(=O)[C@H](CO)NC(=O)[C@H](Cc1ccc(O)cc1)NC(=O)[C@H](CC(=O)O)NC(=O)[C@H](CO)NC(=O)[C@@H](NC(=O)[C@H](Cc1ccccc1)NC(=O)[C@@H](NC(=O)CNC(=O)[C@H](Cc1c[nH]cn1)NC(=O)[C@H](CO)NC(=O)[C@@H](N)Cc1ccc(O)cc1)[C@@H](C)O)[C@@H](C)O)C(=O)N[C@@H](CC(=O)O)C(=O)NC(C)(C)C(=O)N[C@@H](CCCCN)C(=O)N[C@@H](C)C(=O)N[C@@H](C)C(=O)N[C@@H](CCC(N)=O)C(=O)N[C@@H](CCC(=O)O)C(=O)N[C@@H](Cc1ccccc1)C(=O)N[C@H](C(=O)NC(C)(C)C(=O)N[C@@H](Cc1c[nH]c2ccccc12)C(=O)N[C@@H](CC(C)C)C(=O)N[C@@H](CCC(=O)O)C(=O)N[C@@H](CC(=O)O)C(=O)N[C@@H](CCC(=O)O)C(=O)N1CCC[C@H]1C(=O)N[C@@H](CO)C(=O)N[C@@H](CO)C(=O)NCC(=O)N[C@@H](CCCCN)C(=O)N1CCC[C@H]1C(=O)N1CCC[C@H]1C(=O)N1CCC[C@H]1C(=O)N[C@@H](CO)C(=O)O)C(C)C` [Compound A90] (H-YSHGTFTSDYSKYLD[Aib]KAAQEFV[Aib]WLEDEPSSGKPPPS-OH; N-terminus assumed), the EC50 was > 1 nM.
Same read-out and setting: the result for `CC(C)C[C@H](NC(=O)[C@H](Cc1ccc(O)cc1)NC(=O)[C@H](CCCCN)NC(=O)[C@H](CO)NC(=O)[C@H](Cc1ccc(O)cc1)NC(=O)[C@H](CC(=O)O)NC(=O)[C@H](CO)NC(=O)[C@@H](NC(=O)[C@H](Cc1ccccc1)NC(=O)[C@@H](NC(=O)CNC(=O)[C@H](CCC(N)=O)NC(=O)[C@H](CO)NC(=O)[C@@H](N)Cc1ccc(O)cc1)[C@@H](C)O)[C@@H](C)O)C(=O)N[C@@H](CC(=O)O)C(=O)NC(C)(C)C(=O)N[C@@H](CCCCN)C(=O)N[C@@H](C)C(=O)N[C@@H](C)C(=O)N[C@@H](CCC(N)=O)C(=O)N[C@@H](CCC(=O)O)C(=O)N[C@@H](Cc1ccccc1)C(=O)N[C@H](C(=O)NC(C)(C)C(=O)N[C@@H](Cc1c[nH]c2ccccc12)C(=O)N[C@@H](CC(C)C)C(=O)N[C@@H](CCC(=O)O)C(=O)N[C@@H](CC(=O)O)C(=O)N[C@@H](CCC(=O)O)C(=O)N1CCC[C@H]1C(=O)N[C@@H](CO)C(=O)N[C@@H](CO)C(=O)NCC(=O)N[C@@H](CCCCN)C(=O)N1CCC[C@H]1C(=O)N1CCC[C@H]1C(=O)N1CCC[C@H]1C(=O)N[C@@H](CO)C(=O)O)C(C)C` [Compound A96] (H-YSQGTFTSDYSKYLD[Aib]KAAQEFV[Aib]WLEDEPSSGKPPPS-OH; N-terminus assumed) reads > 1 nM.
